From ChEMBL document CHEMBL1201862, “PubChem BioAssay data set” (2004)
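Assay format: 96-well plates, 48-hour exposure. GI50 is the concentration that inhibits growth by half.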 The source made the active and inactive calls. No stated cut-off is given here; in the data, active = GI50 up to about 1.1 µM and inactive = higher.

Legend:
Assay in all cases: NCI-60 cell line screen, 48 h
[1] = system: TK-10
[2] = system: HL-60
[3] = system: NCI-H522
[4] = system: SN12C
[5] = system: RPMI-8226
[6] = system: COLO 205
[7] = system: Malme-3M
[8] = system: HT-29
[9] = system: MCF7
[10] = system: NCI-H460
[11] = system: A498
[12] = system: NCI-H23
[13] = system: T47D
[14] = system: RXF 393
[15] = system: CAKI-1
[16] = system: SF-295
[17] = system: U-251
[18] = system: MDA-MB-435
[19] = system: SF-268
[20] = system: PC-3

Measured: GI50

Cc1ccc(OCC2OC(n3cnc4c(Cl)nc(N)nc43)CC2Oc2ccc(C)cc2)cc1 (stereo not given)
inactive: [1] 58.6 µM | [2] 13.9 µM | [3] 3.61 µM | [4] 10.4 µM | [5] 33 µM | [6] 68.4 µM | [7] 24.5 µM | [8] 46.1 µM | [9] 2.75 µM | [10] 40.6 µM | [11] > 75 µM | [12] 19.2 µM | [13] 20.3 µM | [14] 39.9 µM | [15] 1.76 µM | [16] 15.2 µM | [17] > 55.6 µM | [18] > 57.1 µM | [19] 41.6 µM | [20] 35.4 µM
